Results: patent publication US9540423B2, “Plant defensins and use in the treatment of proliferative diseases” (Balmoral Australia Pty Ltd, priority 2011, dated 2017)
Where two headings read alike, the source gives them in different places.

Columns and labels:
[1] = test system: normal human umbilical vein endothelial cells (HUVEC); assay: MTT cell viability assay, HUVEC; assay type: cell-based; conditions: 48 h
Procedure: Tumour cells were seeded in quadruplicate into wells of a flat-bottomed 96-well microtitre plate (50 μL) at various densities starting at 2×10^6 cells/mL. Four wells containing complete culture medium alone were included in each assay as a background control. The microtitre plate was incubated overnight at 37° C. under a humidified atmosphere containing 5% CO2/95% air, prior to the addition of complete culture medium (100 μL) to each well and further incubated at 37° C. for 48 h. Optimum cell densities (30-50% confluency) for cell viability assays were determined for each cell line by light microscopy.
Tumour cells were seeded in a 96-well microtitre plate (50 μL/well) at an optimum density determined in the cell optimisation assay as above. Background control wells (n=8) containing the same volume of complete culture medium were included in the assay. The microtitre plate was incubated overnight at 37° C., prior to the addition of proteins at various concentrations and the plate was incubated for a further 48 h. […]
The effect of NoD173 on the viability of a tumour cell line and a normal human cell isolate was determined using a 3-(4,5-dimethyl-2-thiazolyl)-2,5-diphenyl-2H-tetrazolium bromide (MTT) in vitro cell culture viability assay. […]

[2] = test system: Fusarium oxysporum f. sp. vasinfectum (Fov); conditions: cited from earlier work
Leptosphaeria maculans = conditions: cited from earlier work
Verticillium dahliae = conditions: cited from earlier work
Thielaviopsis basicola = conditions: cited from earlier work
Aspergillus nidulans = conditions: cited from earlier work
[3] = subcutaneous, intraperitoneal or intratumoural routes; previous studies; cited from earlier work
Phoma betae = conditions: cited from earlier work

Row | Substance | IC50 [1] [µM] | Growth inhibition of Fov ([2]; 1 μM) [%] | Growth inhibition of Fov ([2]; 5 μM) | Growth inhibition of L. maculans (Leptosphaeria maculans; 1 μM) [%] | Growth inhibition of L. maculans (Leptosphaeria maculans; 5 μM) | Growth inhibition of V. dahliae (Verticillium dahliae; 1 μM) | Growth inhibition of V. dahliae (Verticillium dahliae; 5 μM) | Growth inhibition of T. basicola (Thielaviopsis basicola; 1 μM) | Growth inhibition of T. basicola (Thielaviopsis basicola; 5 μM) | Growth inhibition of A. nidulans (Aspergillus nidulans; 1 μM) | Growth inhibition of A. nidulans (Aspergillus nidulans; 5 μM) | Dose at which toxicity was shown [3] | Concentration inhibiting growth of Phoma betae (Phoma betae) [µg/mL]
1 | NaD1: plant defensin isolated from floral tissue of Nicotiana alata; model class II defensin (RECKTESNTFPGICITKPPCRKACISEKFTDGHCSKILRRCLCTKPC; UniProt Q8GTM0 26-72, looked up) | 15 | 50 | more than 80% | 50 | more than 80% | approximately 65% | more than 80% | approximately 65% | more than 80% | approximately 65% | more than 80% | above 1 mg/kg body weight | 
2 | Rs-AFP2: antifungal protein (plant defensin) isolated from radish seeds, 51 amino acids (QKLCQRPSGTWSGVCGNNNACKNQCIRLEKARHGSCNYVFPAHKCICYFPC; UniProt P30230 30-80, looked up) |  |  |  |  |  |  |  |  |  |  |  |  | 1
